In one series the test system is Caco-2 cells. The series can be described thus: Hydrolysis of prodrug in Caco-2 cells. Format: in vitro ADME.
Series [1] can be described thus: Oral dose escalation study in rats (Study D of Ica; historical Study E of IVc). Format: in vivo. The note with it: Sprague-Dawley, rat, plasma; for concentration at 24 h: read-out: C-24 hr; for AUC: read-out: Mean AUCtot. How it is done:
Pharmacokinetic analysis was performed on Kinetica™.
The brain samples were blotted dry and the wet weights were recorded.

The nature of series [2]: 2-week oral dose rat toxicology / TK study F. To be noted: rat, plasma, historical; for AUC(0-t): read-out: Mean AUC0-24 hr. The format is in vivo. Here is the method: In the 2-week oral rat study F (n=six/sex/group), Compound IVe was administered at daily doses of 15, 75, or 200 mg/kg. […] On Day 14, AUC0-24 h values were slightly higher in females (≦644 μg*hr/ml) compared to males (526.88 μg*hr/ml) at dosages 200 mg/kg/day. The oral (PO) results from Study F are in Table 5.

The nature of series [3]: Cytotoxicity assay (XTT dye reduction) in MT-2 cells. The format is cell-based. To be noted: human, six days. (Tetrazolium dyes change colour on reduction, which living cells bring about.)
Description: Cytotoxicity assays were conducted with the same MT-2 cells, using methodology well known in the art. […] 50 μl of XTT reagent (1 mg/ml 2,3-bis[2-methoxy-4-nitro-5-sulfophenyl]-2H-tetrazolium-5-carboxanilide, 10 μg/ml phenazine methosulfate dissolved in phosphate buffered saline) was added to each well and incubated for 3 hours. Color formation by actively respiring cells was quantitated in a plate reader at 450 nm, and used to determine a CC50.
A short description of series [4]: MAP studies G and H: PO dosing of diester IIa and monoester II′a in rats. Format: in vivo, rat. To be noted: 5 mg/kg; for AUC / Cmax / Tmax / bioavailability / half-life: male, Sprague-Dawley, rat, plasma, po; for half-life: read-out: T½ p.o. (converted). How it is done: Compound IVa was administered in a polyethylene glycol 400 (PEG400)/ethanol (EtOH) solution (90/10, v/v) unless noted otherwise. Plasma and tissue samples were collected and stored at −20° C. until analysis. Male Sprague-Dawley rats (300-350 g, Hilltop Lab Animals, Inc., Scottdale, Pa. 15683) with cannulas implanted in the jugular vein and/or bile duct were used in the pharmacokinetic studies of compound IVa. Rats were fasted overnight in PO studies. Blood samples (0.3 mL) were collected from the jugular vein in EDTA-containing microtainer tubes (Becton Dickinson, Franklin Lakes, N.J. 07147) to obtain plasma. […] In the PO studies, rats (n=3) received PO doses of 5 and 100 mg/kg.
The procedure for the oral dosing leg of MAP study A1 was followed except that diester IIa was utilized in place of Compound IVa. […] The data is described in Table 10 below:
The procedure for the oral dosing leg of MAP study A1 was followed except that monoester II′a was utilized in place of Compound IVa. […]

For series [5] the following is noted: monkey.
Description: (§1) The stability of Iab was studied in fresh blood and serum from rat, dog, monkey and human (n=2). The blood was collected in vacutainers containing K2EDTA (Becton Dickinson, Franklin Lakes, N.J.). The serum was collected in vacutainers containing no anticoagulant. Iab was incubated at a starting concentration of approximately 10 μM for 60-90 min at 37° C. Serial samples were taken at the pre-determined times. Aliquots of blood samples (200 μL) were first mixed with 100 μL of water followed by 400 μL of acetonitrile. The serum samples (50 μL) were added into microtainers containing K2EDTA (Becton Dickinson, Franklin Lakes, N.J.) followed by the addition of 100 μL of acetonitrile. The supernatant was analyzed for both Iab and IVa by LC/MS/MS. The stability of Ibb was studied in fresh blood and serum from rat, dog, monkey and human (n=2). The blood was collected in vacutainers containing K2EDTA (Becton Dickinson, Franklin Lakes, N.J.). The serum was collected in vacutainers containing no anticoagulant. Ibb was incubated at a starting concentration of approximately 15 μM for 90 min at 37° C. Serial samples were taken at the pre-determined times. Aliquots of blood samples (200 μL) were first mixed with 100 μL of water followed by 400 μL of acetonitrile. The serum samples (50 μL) were added into microtainers containing K2EDTA (Becton Dickinson, Franklin Lakes, N.J.) followed by the addition of 100 μL of acetonitrile. […] The stability of Icb was studied in fresh blood and serum from rat, dog, monkey and human (n=2). The blood was collected in vacutainers containing K2EDTA (Becton Dickinson, Franklin Lakes, N.J.). The serum was collected in vacutainers containing no anticoagulant. Icb was incubated at a starting concentration of approximately 10 μM for 90 min at 37° C. Serial samples were taken at the pre-determined times. Aliquots of blood samples (200 μL) were first mixed with 100 μL of water followed by 400 μL of acetonitrile. The serum samples (50 μL) were added into microtainers containing K2EDTA (Becton Dickinson, Franklin Lakes, N.J.) followed by the addition of 100 μL of acetonitrile.
The conditions of series [6]: dog, 10 μM.
Description: as §1
Series [7] in a line: Capsule formulation studies of IVa (clinical form, spray dried form) vs Iab in fasted dogs. Format: in vivo, dog. The note with it: capsules, 20 mg/kg of IVa equivalent. Here is the method: Additional formulation studies of IVa were conducted in fasted dogs (n=2 per dose group). The dogs were administered either the clinical form or the spray dried form of IVa in capsules. The clinical capsule form of IVa was administered at a single dose of 20 mg/kg. The spray dried form of IVa was administered at 20, 75 and 200 mg/kg.

Setting [8] is: IVa following PO dosing of diester IIa.
The mark [9] stands for this setting: IVa following PO dosing of monoester II′a.

SMILES strings stand for the structures. Structures can show the parent of a compound that is named as a salt. Where two headings read alike, the source gives them in different places. A value given as a limit tells only on which side of the number the result lay.

With `O=C(C(=O)N1CCN(C(=O)c2ccccc2)CC1)c1cn(COP(=O)(O)O)c2c(-n3ccnn3)ncc(F)c12` [Ibb, [3-[(4-benzoylpiperazin-1-yl)(oxo)acetyl]-4-fluoro-7-(1H-1,2,3-triazol-1-yl)-1H-pyrrolo[2,3-c]pyridin-1-yl]methyl dihydrogen phosphate, L-lysine salt (1:1)], the “hydrolysis to parent in Caco-2 cells” value in the series on Caco-2 cells is given as “completely hydrolyzed”.

As to `COc1cnc(-n2cnc(C)n2)c2[nH]cc(C(=O)C(=O)N3CCN(C(=O)c4ccccc4)CC3)c12` [IVc], the concentration at 24 h was 0.61 µM in series [1] (oral, 25 mg/kg); 5.2 µM in series [1] (oral, 75 mg/kg); 10 µM in series [1] (oral, 200 mg/kg); 0.029 ± 0.008 µM in series [1] (male, po, 5 mg/kg); 0.35 ± 0.13 µM in series [1] (male, po, 25 mg/kg); 58 ± 36 µM in series [1] (male, po, 200 mg/kg). The Cmax – broadly, the peak of the concentration-time curve – came out at 46 µM in series [1] (po, 25 mg/kg); 86 µM in series [1] (po, 75 mg/kg); 42 µM in series [1] (po, 200 mg/kg); 29 ± 14 µM in series [1] (male, po, 5 mg/kg); 98 ± 21 µM in series [1] (male, po, 25 mg/kg); 281 ± 55 µM in series [1] (male, po, 200 mg/kg). Besides, the Cmax amounted to 42 µM in series [2] (rats PO 15 mg/kg (soln), 80/10/10 PEG-400/Ethanol/0.1N NaOH); 65 µM in series [2] (rats PO 75 mg/kg (susp)); 76 µM in series [2] (rats PO 200 mg/kg (susp)). Moreover, the Tmax – broadly, the time at which the peak concentration occurs – in series [1] (po, 25 mg/kg) worked out at 4 h; in series [1] (po, 75 mg/kg), 5 h; in series [1] (po, 200 mg/kg), 4 h; in series [1] (male, po, 5 mg/kg), 0.5 ± 0.25 h; in series [1] (male, po, 25 mg/kg), 1.7 ± 2 h; in series [1] (male, po, 200 mg/kg) it was 1.1 ± 0.8 h. Besides, the AUC is 458 µM·h in series [1] (po, 25 mg/kg); 1070 µM·h in series [1] (po, 75 mg/kg); 518 µM·h in series [1] (po, 200 mg/kg); 109 ± 15 µM·h in series [1] (male, po, 5 mg/kg); 586 ± 53 µM·h in series [1] (male, po, 25 mg/kg); 2920 ± 304 µM·h in series [1] (male, po, 200 mg/kg). Also, the AUC(0-t) turned out to be 418 µM·h in series [2] (rats PO 15 mg/kg (soln)), 792 µM·h in series [2] (rats PO 75 mg/kg (susp)) and 1080 µM·h in series [2] (rats PO 200 mg/kg (susp)).

In the case of `COc1ncc(OC)c2c(C(=O)C(=O)N3CCN(C(=O)c4ccccc4)CC3)c[nH]c12` [IVa, N-(benzoyl)-N′-[(4,7-dimethoxy-6-azaindol-3-yl)-oxoacetyl]piperazine], the CC50 (usually the concentration giving 50% cytotoxicity) at 6 days in series [3] was above 10 µM. In series [4] (setting [8]), the “Cp @ 24 hr p.o. (nM)” value is on record as “Not detected”, the AUC came to 4 ± 1 µM·h, the Cmax stood at 1.12 ± 0.27 µM and the Tmax worked out at 2.7 ± 1.2 h. Also, in series [4] (setting [8]), the bioavailability (as a rule, dose-corrected exposure relative to a reference, in per cent) amounted to 33% and the half-life was 1.3 ± 0.26 h. In series [4] (IVa following PO dosing of monoester II′a, n = 2/3), the “Cp @ 24 hr p.o. (nM)” value is on record as 3.61 (n = 2/3) nM. Also, in series [4] (setting [9]), the AUC amounted to 5.9 ± 2.2 µM·h, the Cmax stood at 1.59 ± 0.615 µM, the Tmax came to 2 ± 1.7 h and the bioavailability was determined as 44%. Further, the half-life in series [4] (setting [9]) is 2.8 ± 1.6 h.

As to `COc1cnc(-n2cnc(C)n2)c2c1c(C(=O)C(=O)N1CCN(C(=O)c3ccccc3)CC1)cn2COP(=O)(O)O` [Icb, [3-[(4-benzoylpiperazin-1-yl)(oxo)acetyl]-4-methoxy-7-(3-methyl-1H-1,2,4-triazol-1-yl)-1H-pyrrolo[2,3-c]pyridin-1-yl]methyl dihydrogen phosphate, 2-amino-2-(hydroxymethyl)propane-1,3-diol salt (1:1)], the “conversion of prodrug to parent in blood containing EDTA” value in series [5] is reported as below 2%. Also, the “Icb” value worked out at 12 µM in series [5] (0 min); 12 µM in series [5] (15 min); 11 µM in series [5] (90 min); 10 µM in series [6] (0 min); 9.7 µM in series [6] (15 min); 6.9 µM in series [6] (90 min).

Regarding `COc1cnc(OC)c2c1c(C(=O)C(=O)N1CCN(C(=O)c3ccccc3)CC1)cn2COP(=O)(O)O` [Iab, {3-[(4-benzoylpiperazin-1-yl)(oxo)acetyl]-4,7-dimethoxy-1H-pyrrolo[2,3-c]pyridin-1-yl}methyl dihydrogen phosphate, L-lysine salt (1:1)], in series [7], the “AUC of IVa from the prodrug relative to the clinical form of IVa” value turned out to be 37 times and the “Cmax of IVa from the prodrug relative to the clinical form of IVa” value was found to be 45 times.

The values above are taken from US20150315218A1, “SALTS OF PRODRUGS OF PIPERAZINE AND SUBSTITUTED PIPERIDINE ANTIVIRAL AGENTS” (Bristol-Myers Squibb Company, priority 2004, published 2015).
